# Test results reported in patent publication US6933317B2, “PGD2 receptor antagonistic pharmaceutical compositions” (Shionogi & Co. Ltd., priority 2000, dated 2005).
# Legend:
# [1] = Change of plasma concentration of drug in rat (half life of the disappearance after intravenous administration); format: in vivo; conditions: Jcl-SD male rats, 0.5 to 2 mg/kg, plasma concentration of unchanged compound
# Procedure: Experiment 3 Change of Plasma Concentration of Drug in Rat
# Compound (0.5 to 2 mg/kg) was administered intravenously to Jcl-SD male rats. The concentration of the unchanged compound was measured at 2, 5, 15, 30, 60, 120, and 240 min after the administration by the use of HPLC (determination limit; 0.05 μg/ml) and LC/MS/MS (determination limit; 0.001 μg/ml) and the half life of the disappearance was calculated. [drawing 387]
# PGD2 receptor [2] = target: T1, PGD2 receptor (Homo sapiens, UniProt Q13258); assay: Antagonistic activity against PGD2 receptor using human platelet (inhibition of PGD2-induced cAMP increase); format: cell-based; conditions: 0.1 μM PGD2, cAMP by radioimmunoassay, read-out: Inhibitory activity for the increase of cAMP caused by PGD2 in human platelet IC50
# T1 construct: Peripheral blood was collected from a healthy volunteer; endogenous in cells; host or cells: washed human platelets from peripheral blood of a healthy volunteer
# T1 sequence (Q13258 1-359): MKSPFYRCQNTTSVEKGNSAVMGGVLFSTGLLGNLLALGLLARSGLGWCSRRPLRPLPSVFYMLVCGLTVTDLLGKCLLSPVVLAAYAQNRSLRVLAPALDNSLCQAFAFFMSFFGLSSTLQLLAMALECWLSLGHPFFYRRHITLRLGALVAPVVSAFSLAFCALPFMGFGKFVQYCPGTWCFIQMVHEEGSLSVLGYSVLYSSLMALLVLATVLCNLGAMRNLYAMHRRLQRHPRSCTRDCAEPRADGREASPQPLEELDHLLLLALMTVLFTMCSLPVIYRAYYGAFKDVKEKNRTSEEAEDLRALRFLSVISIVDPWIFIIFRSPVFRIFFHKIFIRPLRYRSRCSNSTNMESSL
# Procedure: Experiment 2 Evaluation of Antagonistic Activity Against PGD2 Receptor Using Human Platelet
# Peripheral blood was collected from a healthy volunteer using a syringe in which 1/9 volume of a citric acid/dextrose solution was previously added. The sample was subjected to centrifugation at 1200 rpm for 10 min to obtain the supernatant (PRP: platelet rich plasma). The resultant PRP was washed 3 times with a washing buffer and the number of platelets was counted with a micro cell counter. A suspension adjusted to contain the platelets at a final concentration of 5×10^8/ml was warmed at 37° C., then subjected to the pre-treatment with 3-isobutyl-1-methylxanthine (0.5 mM) for 5 min. To the suspension was added a test compound diluted at various concentration, and 10 minutes later, 0.1 μM PGD2 was added to induce the reaction 2 minutes later, hydrochloric acid was added to terminate the reaction. The platelet was destroyed with an ultrasonic homogenizer. After centrifugation, the cAMP in the supernatant was determined by radioimmunoassay.
# PGD2 receptor [3] = target: T1, PGD2 receptor; assay: Binding activity to PGD2 receptor (human platelet membrane fraction, [3H]PGD2); conditions: 5 nM [3H]PGD2, 4° C., 90 min
# Procedure: Experiment 1 Binding Activity to PGD2 Receptor
# (1) Preparation of Human Platelet Membrane Fraction
# Blood was collected using a plastic syringe containing 3.8% sodium citrate from the vein of healthy volunteers (adult male and female), then put into a plastic test tube and mixed by slow-reversion. The sample was then centrifuged at 1800 rpm, for 10 min at room temperature, and the supernatant containing PRP (platelet-rich plasma) was collected. The PRP was re-centrifuged at 2300 rpm, for 22 min at room temperature to obtain platelets. The platelets were homogenized using a homogenizer (Ultra-Turrax) followed by centrifugation 3 times at 20,000 rpm, 10 min at 4° C. to obtain a platelet membrane fraction. After protein determination, the membrane fraction was adjusted to 2 mg/ml and preserved in a refrigerator at −80° C. until using for the binding test.
# (2) Binding to PGD2 Receptor
# To a binding-reaction solution (50 mM Tris/HCl, pH 7.4, 5 mM MgCl2) (0.2 ml) were added the human platelet membrane fraction (0.1 mg) and 5 nM [^3H]PGD2 (115 Ci/mmol), and the mixture was reacted at 4° C. for 90 min. After the reaction, the mixture was filtered through a glass fiber filter paper and washed several times with cooled physiological saline, then the radioactivity retained on the filter paper was measured. The specific-binding ratio was calculated by subtracting the non-specific binding ratio which is the radioactivity similarly measured in the presence of 10 μM PGD2 from the total binding. The inhibitory activity of each compound was expressed as the concentration required for 50% inhibition (IC50), which was determined by depicting a substitution curve by plotting the binding ratio (%) in the presence of each compound, where the binding ratio in the absence of a test compound is 100%.
Compound,half-life [1] [min],IC50 (PGD2 receptor [2]) [nM],IC50 (PGD2 receptor [3]) [nM],melting point [°C]
CC1(C)[C@H]2C[C@H](CCCC/C=C/C(=O)O)[C@@H](NC(=O)c3ccsc3)[C@@H]1C2 [IIa-4],21.6,19,–,–
CC1(C)[C@H]2C[C@H](CCCC/C=C/C(=O)O)[C@@H](NC(=O)c3csc4ccccc34)[C@@H]1C2 [IIa-17],–,15,–,–
CC1(C)[C@H]2C[C@H](CCCC/C=C/C(=O)O)[C@@H](NC(=O)c3csc4cc(O)ccc34)[C@@H]1C2 [IIa-22],–,3.7,–,–
CC1(C)[C@H]2C[C@H](CCCC/C=C/C(=O)O)[C@@H](NC(=O)c3csc4ccc(O)cc34)[C@@H]1C2 [IIa-23],–,2.5,33,–
CC1(C)[C@H]2C[C@H](CCCC/C=C/C(=O)O)[C@@H](NC(=O)c3csc4ccc(F)cc34)[C@@H]1C2 [IIa-28],–,16,–,–
CC1(C)[C@H]2C[C@H](CCCC/C=C/C(=O)O)[C@@H](NC(=O)c3cccc4ccsc34)[C@@H]1C2 [IIa-34],34.6,14,–,141 to 142
CC1(C)[C@H]2C[C@H](CCCC/C=C/C(=O)O)[C@@H](NC(=O)c3coc4ccc(O)cc34)[C@@H]1C2 [IIa-52],16.7,3.7,–,159 to 160
CC1(C)[C@H]2C[C@H](CCCC/C=C/C(=O)O)[C@@H](NC(=O)c3coc4cc(F)ccc34)[C@@H]1C2 [IIa-54],–,15,–,–
CC1(C)[C@H]2C[C@H](CCCC/C=C/C(=O)O)[C@@H](NC(=O)c3cc4ccsc4[nH]3)[C@@H]1C2 [IIa-66],–,17,–,–
CC1(C)[C@H]2C[C@H](CCCCOCC(=O)O)[C@@H](NC(=O)c3ccsc3)[C@@H]1C2 [IIc-4],44.3,18,–,–
CC1(C)[C@H]2C[C@H](CCCCOCC(=O)O)[C@@H](NC(=O)c3csc4ccccc34)[C@@H]1C2 [IIc-17],–,5.4,–,125 to 126
Cc1ccc2scc(C(=O)N[C@@H]3[C@@H](CCCCOCC(=O)O)C[C@H]4C[C@@H]3C4(C)C)c2c1 [IIc-20],–,15,–,87 to 90
CC1(C)[C@H]2C[C@H](CCCCOCC(=O)O)[C@@H](NC(=O)c3csc4cc(O)ccc34)[C@@H]1C2 [IIc-22],–,4.6,–,–
CC1(C)[C@H]2C[C@H](CCCCOCC(=O)O)[C@@H](NC(=O)c3csc4ccc(O)cc34)[C@@H]1C2 [IIc-23],–,4.9,9.5,–
CC1(C)[C@H]2C[C@H](CCCCOCC(=O)O)[C@@H](NC(=O)c3csc4cccc(O)c34)[C@@H]1C2 [IIc-24],–,13,–,–
CC1(C)[C@H]2C[C@H](CCCCOCC(=O)O)[C@@H](NC(=O)c3csc4ccc(F)cc34)[C@@H]1C2 [IIc-28],–,13,–,144 to 146
CC1(C)[C@H]2C[C@H](CCCCOCC(=O)O)[C@@H](NC(=O)c3cccc4ccsc34)[C@@H]1C2 [IIc-34],66.7,11,–,95 to 96
CC1(C)[C@H]2C[C@H](CCCCOCC(=O)O)[C@@H](NC(=O)c3coc4ccc(O)cc34)[C@@H]1C2 [IIc-52],23.4,8.2,3.5,–
Cc1cc(O)cc2c(C(=O)N[C@@H]3[C@@H](CCCCOCC(=O)O)C[C@H]4C[C@@H]3C4(C)C)coc12 [IIc-81],–,8,–,–
CC1(C)[C@H]2C[C@H](CCCCOCC(=O)O)[C@@H](NC(=O)c3csc4ccc(NC(N)=O)cc34)[C@@H]1C2 [IIc-86],–,8,–,–

Compound,half-life [1] [min],IC50 (PGD2 receptor [2]) [nM],IC50 (PGD2 receptor [3]) [nM],melting point [°C]
CC1(C)[C@H]2C[C@H](CCCCOCC(=O)O)[C@@H](NC(=O)c3csc4ccc(CNS(C)(=O)=O)cc34)[C@@H]1C2 [IIc-96],–,17,–,–
CC1(C)[C@H]2C[C@H](CCCCOCC(=O)O)[C@@H](NC(=O)c3csc4ccc(CNC(N)=O)cc34)[C@@H]1C2 [IIc-97],–,11,–,–
CC1(C)[C@H]2C[C@H](CCCCOCC(=O)O)[C@@H](NC(=O)c3csc4ccc(C(N)=O)cc34)[C@@H]1C2 [IIc-99],–,6,–,164 to 166
CC1(C)[C@H]2C[C@H](CCCCOCC(=O)O)[C@@H](NC(=O)c3csc4cc(F)c(O)cc34)[C@@H]1C2 [IIc-128],–,5,–,–
COc1cc2c(C(=O)N[C@@H]3[C@@H](CCCCOCC(=O)O)C[C@H]4C[C@@H]3C4(C)C)csc2cc1F [IIc-129],–,18,–,–
CC1(C)[C@H]2C[C@H](CCCCOCC(=O)O)[C@@H](NC(=O)c3coc4ccc(NC(N)=O)cc34)[C@@H]1C2 [IIc-135],–,3,–,–
CC1(C)[C@H]2C[C@H](CCCCSCC(=O)O)[C@@H](NC(=O)c3csc4cc(O)ccc34)[C@@H]1C2 [IIe-22],–,4.8,–,–
CC1(C)[C@H]2C[C@H](CCCCSCC(=O)O)[C@@H](NC(=O)c3csc4cccc(O)c34)[C@@H]1C2 [IIe-24],–,5.7,–,–
CC1(C)[C@H]2C[C@H](CCCCSCC(=O)O)[C@@H](NC(=O)c3csc4ccc(F)cc34)[C@@H]1C2 [IIe-28],–,17,–,197 to 199
CC1(C)[C@H]2C[C@H](CCCCSCC(=O)O)[C@@H](NC(=O)c3cccc4ccsc34)[C@@H]1C2 [IIe-34],–,19,–,143 to 144
CCOC(=O)Nc1ccc2scc(C(=O)N[C@@H]3[C@@H](CCCCC(=O)O)C[C@H]4C[C@@H]3C4(C)C)c2c1 [IIf-84],–,20,–,–
O=C(O)/C=C/CCCC[C@H]1[C@@H]2CC[C@@H](C2)[C@@H]1NC(=O)c1csc2ccccc12 [Ia-17],–,11,–,155 to 157
Cc1ccc2scc(C(=O)N[C@H]3[C@H]4CC[C@H](C4)[C@@H]3CCCC/C=C/C(=O)O)c2c1 [Ia-20],–,17,–,129 to 131
O=C(O)/C=C/CCCC[C@H]1[C@@H]2CC[C@@H](C2)[C@@H]1NC(=O)c1cc2sccc2[nH]1 [Ia-65],–,18,–,–
O=C(O)COCCCC[C@H]1[C@@H]2CC[C@@H](C2)[C@@H]1NC(=O)c1csc2cc(O)ccc12 [Ic-22],–,10,–,76 to 79
O=C(O)COCCCC[C@H]1[C@@H]2CC[C@@H](C2)[C@@H]1NC(=O)c1csc2ccc(O)cc12 [Ic-23],–,10,–,149 to 151
O=C(O)COCCCC[C@H]1[C@@H]2CC[C@@H](C2)[C@@H]1NC(=O)c1coc2ccc(O)cc12 [Ic-52],–,10,74,–
"CC1(C)[C@H]2C[C@H](C/C=C\CCCC(=O)O)[C@@H](NC(=O)c3ccsc3)[C@@H]1C2 [Reference compound 1, reference compound]",8,–,–,–
"CC1(C)[C@H]2C[C@H](C/C=C\CCCC(=O)O)[C@@H](NC(=O)c3cccc4ccsc34)[C@@H]1C2 [Reference compound 2, reference compound]",17,–,–,–
CC1(C)[C@H]2C[C@H](C/C=C\CCCC(=O)O)[C@@H](NC(=O)c3coc4ccc(O)cc34)[C@@H]1C2 [Reference compound 3],8.7,–,–,–
